Assay results from US20230140290A1, “SALICYLAMIDE DERIVATIVES AND RELATED METHODS OF MAKING” (THE BOARD OF REGENTS OF THE UNIVERSITY OF TEXAS SY, priority 2020, published 2023).

Columns and labels:
[1] = system: wild-type HAdV5; assay: Nuclear-associated HAdV genomes (real-time PCR); type: cell-based, HAdV-5
Protocol: (§1) Nuclear-Associated HAdV Genomes. The nuclear delivery of HAdV genomes was assessed by real-time PCR following nuclear isolation from infected cells. […] Forty-five minutes after infection, A549 cells were trypsinized and collected and then washed twice with PBS. Then, cytoplasmic and nuclear fractions were separated using a hypotonic buffer solution and NP-40 detergent. The cell pellet was resuspended in 500 μL of 1×hypotonic buffer (20 mM Tris-HCl pH 7.4, 10 mM NaCl, 3 mM MgCl2) and incubated for 15 min at 4° C. Then, 25 μL of NP-40 was added and the samples were vortexed. The homogenates were centrifuged for 10 min at 835 g at 4° C. Following the removal of the cytoplasmic fraction (supernatant), HAdV DNA was isolated from the nuclear fraction (pellet) and from the cytoplasmic fraction using the QIAamp DNA Mini Kit (QIAGEN, Valencia, Calif.).
as §1, with “E.Z.N.A.® Tissue” for “QIAamp”, “DNA” for “DNA Mini”, “(Omega Bio-tek, Norcross, Ga.).” for “(QIAGEN, Valencia, Calif.).”

[2] = system: wild-type HAdV5; assay: HAdV DNA quantification by real-time PCR (DNA replication); type: cell-based, HAdV-5; conditions: 24 h
Protocol: DNA Quantification by Real-Time PCR. […] Infected cells were incubated 24 h at 37° C. in 500 μL of complete DMEM containing 25 μM of either compounds or the same volume of DMSO (positive control). All samples were done in duplicate. After 24 h of incubation at 37° C., DNA was purified from the cell lysate with the QIAamp DNA Mini Kit (QIAGEN, Valencia, Calif.) following the manufacturer's instructions. TaqMan primers and probes for a common region of the HAdV5 were designed with the GenScript Real-Time PCR (TaqMan) Primer Design software (GenScript). […] Real-time PCR mixtures consisted of 9.5 μL of the purified DNA, AQ1 and AQ2 at a concentration of 200 nM each and Probe at a concentration of 50 nM in a total volume of 25 μL. The PCR cycling protocol was 95° C. for 3 min followed by 40 cycles of 95° C. for 10 s and 60° C. for 30 s. Human glyceraldehyde-3-phosphate dehydrogenase (GAPDH) gene was used as internal control. Oligonucleotides sequences for GAPDH and conditions were those previously reported by Henke-Gendo et al. (2012).
For quantification, gene fragments from hexon, and GAPDH were cloned into the pGEM-T Easy vector (Promega) and known concentrations of template were used to generate a standard curve in parallel for each experiment. All assays were performed in thermal cycler LightCycler® 96 System (Roche).
(§2) HAdV DNA Quantification by Real-Time PCR. […] All samples were done in duplicate. After 24 h of incubation at 37° C., DNA was purified from the cell lysate with the E.Z.N.A.® Tissue DNA Kit (Omega Bio-tek, Norcross, Ga.) following the manufacturer's instructions. TaqMan primers and probes for a common region of the HAdV5 were designed with the GenScript Real-Time PCR (TaqMan) Primer Design software (GenScript). […] Real-time PCR mixtures consisted of 9.5 μL of the purified DNA, AQ1 and AQ2 at a concentration of 200 nM each and Probe at a concentration of 50 nM in a total volume of 25 μL. The PCR cycling protocol was 95° C. for 3 min followed by 40 cycles of 95° C. for 10 s and 60° C. for 30 s. Human glyceraldehyde-3-phosphate dehydrogenase (GAPDH) gene was used as internal control. Oligonucleotides sequences for GAPDH and conditions were those previously reported by Henke-Gendo et al. (2012).
as §2, with “DNA” for “HAdV DNA”

[3] = system: HAdV5-GFP; assay: Plaque assay (inhibition of HAdV plaque formation); type: cell-based, HAdV-5; conditions: for inhibition at 10 µM: read-out: Plaque Assay (%) Inhibition (10 μM); for Selectivity index (SI): ratio of CC50 to IC50 in plaque assay
Outline: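 Compounds were present in the post-infection mixture at 10 μM, or at 10 to 0.3 μM for dose-response. Infection used low MOI HAdV5-GFP (0.06 vp/cell) on 80-90% confluent cells, 2 h rocking at 37° C, then a PBS wash.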

[4] = system: HAdV5-GFP; assay: Time of addition assay; type: cell-based, HAdV-5
Protocol: (§3) Time of Addition Curve Study. […] Parallel samples of HAdV-5 were incubated with or without the selected derivatives on ice for 1 h. […] The derivatives were added at the indicated time points before or during this incubation. After a total of 2 h at 37° C., cells were incubated for an additional 48 h at 37° C. and 5% CO2 before being analyzed for GFP expression using the Typhoon 9410 imager (GE Healthcare Life Sciences) as above.
as §3, with “Assay.” for “Curve Study.”
as §3, with “Assay.” for “Curve Study.”, “compounds” for “derivatives”, “Compounds 153 and 161” for “The derivatives”

[5] = system: HAdV5-GFP; assay: Entry assay (HAdV5-mediated GFP expression); type: cell-based, HAdV-5; conditions: for inhibition at 50 µM: A549, 48 h, read-out: (%) Inhibition Entry Assay (50 μM); for IC50: A549, read-out: IC50 Entry Assay (μM), HAdV5-GFP, high MOI, A549 cell line
Protocol: Entry Assay. The anti-HAdV activity was measured in an entry assay using human A549 epithelial cells (3×10^5 cells/well in coming black wall, clear bottom 96-well plates) infected with HAdV5-GFP (2000 vp/cell) in the presence 50 μM of the candidates and in a dose-response assay. A standard infection curve was generated in parallel by infecting cells in the absence of compounds using serial 2-fold dilutions of virus. All reactions were done in triplicate. Cells, virus, and drugs were incubated for 48 h at 37° C. and 5% CO2.

[6] = system: HCMV; assay: HCMV DNA quantification by real-time PCR; type: cell-based, human cytomegalovirus; conditions: HFF cells, 72 h, 10-fold plaque IC50 (niclosamide 5 μM)
Protocol: HCMV DNA Quantification by Real-Time PCR. […] Then, cells were incubated for 72 h at 37° C. and 5% CO2 and HCMV DNA was purified from the cell lysate using the QIAamp DNA Mini Kit (Qiagen, Valencia, Calif.) following the manufacturer's instructions. Real-time PCR primers, mixtures and protocols were the same as previously reported (Sanchez-Cespedes et al., J. Med. Chem. 2016, 59, 5432-5448).

[7] = system: A549 cells; assay: Cytotoxicity assay (AlamarBlue); conditions: read-out: CC50 (μM), cytotoxic concentration 50%; A549 cell line, 48 h
Protocol: (§4) Cytotoxicity Assay. The cytotoxicity of the compounds was analyzed by commercial kit AlamarBlue® (Invitrogen, Ref. DAL1025). A549 cells at a density of 5×10^3 cells per well in 96-well plates were seeded. […] Cells were then incubated at 37° C. for 48 h following the kit protocol. The cytotoxic concentration 50 (CC50) value was obtained using the statistical package GraphPad Prism. This assay was performed in duplicate.

[8] = Cytotoxicity assay (AlamarBlue); conditions: human, A549 cells
Protocol: as §4

[9] = read-out: Plaque Assay IC50 (μM), HAdV5-GFP, low MOI, 293β5 cell line
[10] = FIG. 5A, 45 min post-infection, 10-fold plaque IC50
[11] = HAdV5-GFP, low MOI, 293β5 cell line, read-out: Plaque Assay IC50

| SMILES | amount of nuclear-associated HAdV genomes versus DMSO ([1]; FIG. 3, 45 min post infection, concentrations by CC50 (2-50 μM)) | inhibition of HAdV-5 DNA replication (qPCR) ([2]; FIG. 4, concentrations by CC50 (2-50 μM)) | inhibition at 10 µM [3] [%] | IC50 [3, 9] [µM] | loss of inhibition when added between 5 and 10 min p.i. ([4]; FIG. 2, 10 μM) [%] | inhibition at 50 µM [5] [%] | IC50 [5] [µM] | amount of nuclear-associated HAdV genomes versus DMSO [1, 10] | inhibition of HAdV-5 DNA replication (qPCR) ([2]; FIG. 6A, 10-fold plaque IC50) | Selectivity index (SI) [3] | decrease of total HCMV DNA compared to the DMSO control [6] | CC50 [7] [µM] | IC50 [3, 11] [µM] | IC50 ([3]; {}) [µM] | CC50 at 48 h [8] [µM] | anti-HAdV activity when added between 10 and 20 min p.i. ([4]; FIG. 7, 10-fold plaque IC50) |
| --- | --- | --- | --- | --- | --- | --- | --- | --- | --- | --- | --- | --- | --- | --- | --- | --- |
| O=C(Nc1ccc(C(F)(F)F)cc1Cl)c1cc(Cl)ccc1O [Compound 14, 5-Chloro-N-(2-chloro-4-(trifluoromethyl)phenyl)-2-hydroxybenzamide] | partially inhibited | significant (p≤0.0001) inhibitory activity | 100 | 0.08 | 20 | 100 | 1.67 ± 0.25 |  |  |  |  |  |  |  |  |  |
| O=C(Nc1ccc(NC2CCCC2)cc1Cl)c1cc(Cl)ccc1O [Compound 78, 5-Chloro-N-(2-chloro-4-(cyclopentylamino)phenyl)-2-hydroxybenzamide] |  |  | 100 | 0.5 ± 0.1 |  | 27.5 ± 3.8 | > 50 | no significant differences | moderate inhibition | 185.8 | no significant inhibition | 92.9 ± 7.1 |  |  |  |  |
| O=C(Nc1ccc(NCc2ccncc2)cc1Cl)c1cc(Cl)ccc1O [Compound 108, 5-Chloro-N-(2-chloro-4-((pyridin-4-ylmethyl)amino)phenyl)-2-hydroxybenzamide] |  |  | 100 |  |  |  |  |  |  | 24.6 |  | 65.3 ± 5.7 | 1.66 to 4.78 | 2.66 ± 0.17 | 65.3 to 126 |  |
| O=C(Nc1ccc(NCc2cccnc2Cl)cc1Cl)c1cc(Cl)ccc1O [Compound 109, 5-Chloro-N-(2-chloro-4-(((2-chloropyridin-3-yl)methyl)amino)phenyl)-2-hydroxybenzamide] |  |  | 100 |  |  |  |  |  |  | 21.0 |  | 100 ± 29.8 |  |  | 65.3 to 126 |  |
| O=C(Nc1ccc(NCc2cnccc2Cl)cc1Cl)c1cc(Cl)ccc1O [Compound 110, 5-Chloro-N-(2-chloro-4-(((4-chloropyridin-3-yl)methyl)amino)phenyl)-2-hydroxybenzamide] |  |  | 100 |  |  |  |  |  |  | 75.7 |  | 126 ± 25.1 | 1.66 to 4.78 | 1.66 ± 0.42 | 65.3 to 126 |  |
| O=C(Nc1ccc(NCc2cccc(Br)n2)cc1Cl)c1cc(Cl)ccc1O [Compound 111, N-(4-(((6-Bromopyridin-2-yl)methyl)amino)-2-chlorophenyl)-5-chloro-2-hydroxybenzamide] |  |  | 100 |  |  |  |  |  |  | 40.8 |  | 92.3 ± 9.5 | 1.66 to 4.78 | 2.26 ± 0.05 | 65.3 to 126 |  |
| CC(C)(C)OC(=O)N1CCC(CNc2ccc(NC(=O)c3cc(Cl)ccc3O)c(Cl)c2)CC1 [Compound 126, tert-Butyl 4-(((3-chloro-4-(5-chloro-2-hydroxybenzamido)phenyl)amino)methyl)piperidine-1-carboxylate] |  |  | 97.8 ± 1.4 | 0.93 |  | 67.6 | < 3.13 | partially inhibited |  | 102.2 |  |  |  |  | 95 | loses its anti-HAdV activity |
| Nc1ccn(C[C@@H](CO)OCP(=O)(O)O)c(=O)n1 [cidofovir, reference compound] |  |  |  | 24.1 ± 5.9 |  |  |  |  |  | 7.5 |  |  |  |  | 50.1 ± 9.8 |  |
